Experimental data: patent publication US9205156B2, “Molecular imaging agents” (HADASIT MEDICAL RESEARCH SERVICES & DEVELOPMENT LIMITED, priority 2010, dated 2015)
Values joined by “and” are separate entries in the source; they are usually repeats but may differ in a detail not shown here. Equal entries are not always repeated. Each block holds one compound with its values, some of them ahead of it.

What was measured:
[1] = Tracer biodistribution studies in mice (γ-counter, % ID/g)
Experimental: Compounds [^11C]-1, [^11C]-2, [^11C]-3, [^11C]-4, [^11C]-6, [^11C]-7 and Technetium-99 m methoxy isobutyl isonitrile ([^99mTc]MIBI) biodistribution studies were carried out with BALB/c Ola/Hsd mice (7-8 week). Tracers were injected in a 10% EtOH/saline solution as vehicle. Either [^11C]-1 (62±15 μCi; […]; 122±13 μL), [^11C]-2 (68±12 μCi; 2.5±0.4 MBq; 188±1.3 μL), [^11C]-3 (70±17 μCi; 2.6±0.6 MBq; 185±5 μL), [^11C]-4 (18±5 μCi; […]; 195±2.2 μL or 1.24±0.93 MBq, 229±63 μL), [^11C]-6 (1.95±0.21 MBq, 83±41 μL), [^11C]-7 (2.01±0.16 MBq, 169±73 μL) or [^99mTc]mibi (14.2±1.7 μCi; 3.6±0.4 MBq; 97.7±12.5 μL) were injected via the lateral vein. At allotted time points (1, 5, 10, 15 min), blood was drawn from the orbital sinus, mice were sacrificed by cervical dislocation and selected organs (heart, lungs, liver and kidney) were excised, weighed and measured for their radioactive content using a γ-counter (1480 Wizard 3″). Distribution of activity was calculated as the percentage of injected dose per gram of organ (% ID/g). Activity uptake ratios of various organs were calculated by dividing the corresponding calculated % ID/gs.
Distribution of activity was calculated as the percentage of injected dose per gram of wet tissue (% ID/g). Activity uptake ratios of various organs were calculated by dividing the corresponding calculated % ID/g. Heart standardized uptake values (SUVs) were calculated by dividing the % ID in the heart of each rat by the percentage of heart weight of the total body weight of the animal.

[2] = literature reference value; cited from earlier work
log P (lipophilicity) = format: physicochemical; details: n=3, data not shown
[3] = Biodistribution of [11C]-4 in rats (γ-counter, % ID/g, heart SUV); format: in vivo, SD/Hsd rats
Experimental: Similar to the biodistribution studies in mice, [^11C]-4 was injected into male SD/Hsd rats (293±9 g) in a 10% EtOH/saline solution (3.1±0.5 MBq; 530±134 μL) via the lateral tail vein. At the allotted time points, blood was drawn, animals were sacrificed, and selected organs were excised, weighed and measured for their radioactive content.

[4] = Micro-PET scans in rats, time activity curves; format: in vivo, Wistar rats; details: microPET; for myocardial radioactivity uptake: isoflurane anesthesia
Experimental: Micro-PET scans were also carried out using healthy Wistar rats (154±47 g). Anesthesia was induced, and thereafter maintained by 3% and 1%-2.5% isoflurane in O2, respectively. During the scans, rats were maintained normothermic using a heating blanket. All CT and PET acquisitions were carried out using the Inveon™ multimodality PET-CT small animal-dedicated scanner (Siemens Medical Solutions USA Inc.). Rats were positioned in the scanner so that the heart was in the center of the field of view. Following a CT scan, PET list-mode acquisition was started at the time of injection of [^11C]-4 (14.3±5.7 Mbq/rat, n=4) or [^13N]—NH3 (81.1±20.4 Mbq/rat, n=6) in the lateral tail vein. Acquisitions continued for 60 min or 40 min post-injection, for [^11C]-4 or [^13N]—NH3, respectively.
The list-mode emission scans were sorted into 29 (6×10, 8×30, 5×60, 10×300 sec) and 24 (12×10, 6×30, 5×300, 1×600 sec) dynamic frames, for [^11C]-4 and [^13N]—NH3 respectively. Emission sinograms were normalized and corrected for attenuation, dead time and decay. Image reconstruction was performed using Fourier rebinning and two dimensional ordered-subsets expectation maximization (2D-OSEM), with a voxel size of 0.776×0.776×0.796 mm^3.
Image analysis and quantification of radioactivity concentration in regions of interest (ROIs) were performed using Inveon Research Workplace 3.1 (Siemens Medical Solutions USA Inc.). Delineation of ROIs was performed by manual segmentation, and the corresponding time activity curves (TACs) were calculated.

[5] = PET/CT studies in a porcine model of LCx coronary artery occlusion (rest and adenosine stress); format: in vivo, pigs
Experimental: Following a constriction of the left circumflex coronary artery (LCxA) via insertion and manipulation of a stent, stress and rest dynamic-PET studies were performed in three pigs. Pigs underwent dynamic PET acquisition following injections of [^11C]-4 both at rest and under pharmacological stress [(207±30 MBq in 10±4 mL) and (203±11 MBq in 16±1 mL), respectively]. Images were acquired for each animal at rest and stress on the same day, allowing a minimum of 5 half-lives (approximately 2 h for carbon-11 and 1 h for nitrogen-13) in between injections to minimize crosstalk. Pharmacological stress was induced by an IV infusion of adenosine (500 μg×min^−1×kg^−1 body weight), beginning 3 min prior to injection of the tracers, and maintained for an additional 3 min. When necessary, hypotension was prevented by concomitant IV administration of dobutamine (2 μg×min^−1×kg^−1 body weight).
In order to prevent complete occlusion in the third pig, the angiography and stent insertion were carried out in the PET/CT room, thus minimizing the animal's movement, and the animal was given higher doses of heparin (a sum of 30,000 units throughout the experiment) based on Activated Clotting Time (ACT) test. In the third pig, the adenosine stress protocol was performed twice: once with [^13N]NH3 (700 MBq in 1 mL) injection, and 2.5 h later, the adenosine stress protocol was repeated with [^11C]-4 injection.
To prevent blood clotting, pigs were treated with aspirin (250-300 mg) and plavix (150-300 mg) on the day before the procedure. On the day of the study, the animals were anesthetized using ketamine/xylazine (15 mg/kg/2 mg/kg) and Butorphanol 0.2 mg/kg IM as premedication. For induction, ketamin/diazepam (4 mg/kg/0.02 mg/kg) was administered intravenously. Animals were ventilated and anesthesia, maintained using isoflorane 2% inhalation (via tracheal tube). Animals were monitored continuously for ECG, body temperature, O2 saturation, blood pressure, pulse and breathing. Vascular access was prepared in the left and right ear veins for drug and tracer administration, and a catheter was placed in the left femoral artery for stent insertion and arterial blood pressure measurements.
Following anesthesia, the pigs underwent cannulation of the left femoral artery with a 7 Fr introducer sheath and a 7 Fr hockeystick catheter (Cordis) was positioned in the left main coronary artery. Partial LCx coronary artery occlusion was induced via partial inflation of the proximal component of a JOSTENT Graftmaster (Abbott Vascular, USA) inside the LCx coronary artery, creating a funnel-shaped structure. Before insertion of the stent, the 3.5×16 mm JOSTENT was partially crimped over a 3.5 mm balloon with its distal third beyond the inflating balloon. Inflation of the balloon dilates the crimped part leaving a distal cone that is not dilated with an orifice approximately 1 mm in diameter. Thus, when deployed in an artery that is 3.5 mm in diameter, a partial, yet significant stenosis was established.
Coronary angiography was performed with 20-30 mL of contrast media and 3.5 mm wide and >20 mm long segment of the LCx artery that was free of major branches. The stent system was brought to the assigned segment over a floppy 0.014 coronary wire (ASAHI). The balloon was inflated with a pressure of 14-16 atmospheres (10-15 seconds) and the balloon was then deflated and withdrawn. Angiography was then performed in two different projections to ascertain that the cone-shaped stent enabled preserved continuous flow through its patent distal orifice. To ensure partial stenosis rather than complete occlusion of the artery during the PET imaging, a repeated angiography was taken at the end of imaging.
Animals were placed in a supine position with the heart in the center of the field of view of the PET/CT scanner. Imaging was performed on a Discovery ST PET/CT tomograph (GE Healthcare, Milwaukee, Wis.), with intrinsic spatial resolution: in-plane 6.2 mm, axial 5.0 mm. […]

[6] = mice, time point not stated (within 15 min period)
[7] = BALB/c Ola/Hsd, mouse, in vivo, 1 min
[8] = BALB/c Ola/Hsd, mouse, in vivo, 5 min
[9] = BALB/c Ola/Hsd, mouse, in vivo, 10 min
[10] = BALB/c Ola/Hsd, mouse, in vivo, 15 min

Compound: C[N+](C)([11CH3])c1ccccc1 [[^11C]-2, [^11C]trimethyl-phenyl-ammonium iodide]
radioactivity uptake in the heart ([1]; mice, 1 min post injection): 29.5 % ID/g | heart/blood activity uptake ratio ([1]; mice, 5 min post injection): 15.5 fold | heart/liver activity uptake ratio ([1]; mice, 5 min post injection): 1.9 | heart/lungs activity uptake ratio ([1]; mice, 5 min post injection): 2.6 | radioactivity uptake in the heart ([1]; mice, 5 min post injection): 26.8 % ID/g | heart/blood activity uptake ratio ([1]; mice, 10 min post injection): 13.3 fold and ~13 fold | radioactivity uptake in the heart ([1]; mice, 10 min post injection): 18.5 % ID/g and ~20 % ID/g | radioactivity uptake in the heart ([1]; mice, 15 min post injection): 13.9 % ID/g | heart/blood activity uptake ratio [1, 6]: 16 fold | log P [2]: −2.74

radioactivity uptake in the heart [1, 7]: 48.7 % ID/g | radioactivity uptake in the heart [1, 8]: 47.7 % ID/g | radioactivity uptake in the heart [1, 9]: 40.15 % ID/g | radioactivity uptake in the heart [1, 10]: 28.5 % ID/g | logP (log P (lipophilicity)): -0.93 ± 0.1
Compound: CN(C)c1ccc([N+](C)(C)[11CH3])cc1 [[^11C]-3, [^11C](4-dimethylamino-phenyl)-trimethyl-ammonium iodide]

Compound: C[N+]([11CH3])(c1ccccc1)c1ccccc1 [[^11C]-4, [^11C]dimethyl-diphenyl-ammonium iodide]
radioactivity uptake in the heart [1, 7]: 46.6 % ID/g | heart/blood activity uptake ratio [1, 8]: 44 fold | radioactivity uptake in the heart [1, 8]: 50.4 % ID/g | heart/blood activity uptake ratio [1, 9]: 61 fold | radioactivity uptake in the heart [1, 9]: 62.5 % ID/g | Heart SUV [1, 10]: 9.7±0.5 | radioactivity uptake in the heart [1, 10]: 44.5 % ID/g | heart uptake compared to [99mTc]-MIBI ([1]; mouse, in vivo): twice as high | stable heart SUVs [3]: about 15 | heart/blood activity ratios ([3]; 5-15 min after injection): 67.5-88.5 | heart/kidneys uptake ratio ([3]; 10 min after injection): 3.5 | heart/liver uptake ratio ([3]; 10 min after injection): 3.2 | heart/lungs uptake ratio ([3]; 10 min after injection): 2.4 | Heart SUV ([3]; 15 min post injection): 15.6±0.4 | heart/blood activity ratio ([3]; 15 min post injection): about 90 | radioactivity in the heart compared to the lungs, kidneys and the liver ([3]; 15 min post injection): approximately 5 fold | radioactivity uptake in the heart ([3]; throughout the first 15 min): approximately 5 % ID/g | kidney radioactivity uptake, initial peak value [4]: 6 % ID/mL | kidney radioactivity uptake ([4]; 20 min after injection): ~1 % ID/mL | myocardial radioactivity uptake [4]: ~3 % ID/mL | myocardial perfusion image finding, rest and stress ([5]; pig 1, complete stent occlusion): very severe, non-filling defect | myocardial perfusion image finding, rest and stress ([5]; pig 2, acute myocardial infarction): severe, fixed, inferior wall defect, with partial inferolateral wall reversibility | myocardial perfusion image finding at adenosine stress ([5]; pig 3, partial LCx stenosis): severe inferolateral defect | myocardial perfusion image finding at rest ([5]; pig 3, partial LCx stenosis): filling in of that defect | time to minimum of blood pool activity ([5]; pig 3, time-activity curves): 5 min | time to plateau of cardiac accumulation ([5]; pig 3, time-activity curves): approximately 10 min

Compound: Cc1cccc([N+](C)(C)[11CH3])c1 [[^11C]-6, [^11C]Methyl-dimethyl-m-tolyl-ammonium iodide]
heart/blood activity uptake ratio ([1]; mice, 10 min post injection): ~13 fold | radioactivity uptake in the heart ([1]; mice, 10 min post injection): ~20 % ID/g

Compound: C[N+](C)([11CH3])c1cccc2ccccc12.O=S(=O)([O-])C(F)(F)F [[^11C]-7, [^11C]Methyl-dimethyl-1-naphtylammonium trifluoro-methane-sulfonate]
radioactivity uptake in the heart ([1]; mice, 10 min post injection): ~33 % ID/g | heart/blood activity uptake ratio [1, 6]: ≤ 20 fold

Compound: [13NH3] [[^13N]NH3, [^13N]ammonia, reference compound]
kidney radioactivity uptake, initial peak value [4]: 3 % ID/mL | myocardial radioactivity uptake [4]: ≤ 1.7 % ID/mL | myocardial perfusion image finding at adenosine stress ([5]; pig 3, partial LCx stenosis): severe inferolateral defect

Compound: [99Tc].[C-]#[N+]CC(C)(C)OC.[C-]#[N+]CC(C)(C)OC.[C-]#[N+]CC(C)(C)OC.[C-]#[N+]CC(C)(C)OC.[C-]#[N+]CC(C)(C)OC.[C-]#[N+]CC(C)(C)OC [[^99mTc]MIBI, Technetium-99 m methoxy isobutyl isonitrile, reference compound]
radioactivity uptake in the heart ([1]; mice, 1 min post injection): 24 % ID/g | radioactivity uptake in the heart ([1]; mice, 5 min post injection): 20.5 % ID/g | radioactivity uptake in the heart ([1]; mice, 10 min post injection): 21.4 % ID/g | heart/blood activity uptake ratio ([1]; mice, 15 min post injection): 45.1 fold | radioactivity uptake in the heart ([1]; mice, 15 min post injection): 13.8 % ID/g

Compound: [^11C]tetramethyl-ammonium iodide [[^11C]-1]
cardiac uptake, folds lower than in the kidneys ([1]; mice): 9 folds | cardiac uptake, folds lower than in the liver ([1]; mice): 3 folds | activity accumulation in the heart over all observed time points ([1]; mice, 1-15 min post injection): 0.7-1.1 % ID/g | heart/blood activity uptake ratio [1, 6]: less than 6 fold | log P [2]: −3.92
